Values of other authors as cited in US8679507B2, “Testosterone olfaction” (priority 2012, dated 2014).

Tested on: human females
Details: female college students, upper lip exposed; follicular phase

## C[C@]12CC[C@@H](O)C[C@@H]1CC[C@@H]1[C@@H]2CC[C@]2(C)C=CC[C@@H]12 [androstenol]
  frequency of the LH pulse: decreased
